The record followed here is patent US8217051B2, “Spiroindolinone derivatives” (Hoffmann-La Roche Inc., priority 2009, dated 2012).

The term IC50 denotes the concentration that gives 50% inhibition. Low values mean greater potency in that assay, high ones weaker potency in that assay.

Chain of interaction between p53 and MDM2 proteins (Q00987 whole entry): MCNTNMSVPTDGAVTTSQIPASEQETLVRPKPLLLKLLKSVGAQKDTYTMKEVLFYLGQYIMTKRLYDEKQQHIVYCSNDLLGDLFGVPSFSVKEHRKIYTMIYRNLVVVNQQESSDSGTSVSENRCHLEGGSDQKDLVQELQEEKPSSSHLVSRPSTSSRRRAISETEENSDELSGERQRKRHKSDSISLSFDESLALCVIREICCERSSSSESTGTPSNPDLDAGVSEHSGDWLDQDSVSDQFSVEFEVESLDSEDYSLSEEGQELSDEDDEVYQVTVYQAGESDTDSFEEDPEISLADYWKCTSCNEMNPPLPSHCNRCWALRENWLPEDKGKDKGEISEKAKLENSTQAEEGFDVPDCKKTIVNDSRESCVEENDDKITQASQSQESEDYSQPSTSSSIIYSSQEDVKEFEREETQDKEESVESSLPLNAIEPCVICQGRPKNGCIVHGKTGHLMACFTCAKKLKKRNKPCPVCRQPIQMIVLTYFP

The target in this assay is interaction between p53 and MDM2 proteins (Homo sapiens, UniProt Q00987). Briefly: HTRF assay of inhibition of p53-MDM2 interaction (GST-MDM2 / biotinylated p53 peptide). Particulars: 0.02% BSA. Format: binding. The method, then:
The ability of the compounds to inhibit the interaction between p53 and MDM2 proteins was measured by an HTRF (homogeneous time-resolved fluorescence) assay in which recombinant GST-tagged MDM2 binds to a peptide that resembles the MDM2-interacting region of p53 (Lane et al.). Binding of GST-MDM2 protein and p53-peptide (biotinylated on its N-terminal end) is registered by the FRET (fluorescence resonance energy transfer) between Europium (Eu)-labeled anti-GST antibody and streptavidin-conjugated Allophycocyanin (APC).
Test is performed in black flat-bottom 384-well plates (Costar) in a total volume of […] containing:90 nM biotinylate peptide, 160 ng/ml GST-MDM2, 20 nM streptavidin-APC (PerkinElmerWallac), 2 nM Eu-labeled anti-GST-antibody (PerkinElmerWallac), 0.2% bovine serum albumin (BSA), 1 mM dithiothreitol (DTT) and 20 mM […] (TBS) buffer as follows: Add 10 uL of GST-MDM2 (640 ng/ml working solution) in reaction buffer to each well. Add 10 uL diluted compounds (1:5 dilution in reaction buffer) to each well, mix by shaking. Add 20 uL biotinylated p53 peptide (180 nM working solution) in reaction buffer to each well and mix on shaker. Incubate at 37° C. for 1 h. Add 20 uL streptavidin-APC and Eu-anti-GST antibody mixture (6 nM Eu-anti-GST and 60 nM streptavidin-APC working solution) in TBS buffer with 0.2% BSA, shake at room temperature for 30 minutes and read using a TRF-capable plate reader at 665 and 615 nm (Victor 5, Perkin ElmerWallac). If not specified, the reagents were purchased from Sigma Chemical Co.
A general note: TR-FRET usually uses a lanthanide donor and a delayed reading to cut background.
As for `O=C1C=C(c2cccc(F)c2)[C@]2(C(=O)Nc3cc(Cl)ccc32)[C@@H](c2cc(Cl)ccc2OC2CCOCC2)N1` (racemic) [Example 16, racemic(2′R,3R)-6-chloro-2′-[5-chloro-2-(tetrahydro-pyran-4-yloxy)-phenyl]-4′-(3-fluoro-phenyl)-1′,3′-dihydrospiro[3H-indole-3,3′-pyridine]-2,6′(1H)-dione], half-maximal inhibition (IC50) was put at 0.482 µM.
Regarding `Cc1ccc(F)cc1[C@H]1NC(=O)C=C(c2cccnc2)[C@]12C(=O)Nc1cc(Cl)ccc12` (racemic) [Example 40, racemic(2′R,3R)-6-chloro-2′-(5-fluoro-2-methyl-phenyl)-4′-(pyridin-3-yl)-1′,3′-dihydrospiro[3H-indole-3,3′(2′H)-pyridine]-2,6′(1H)-dione], the IC50 was 6.42 µM.
`O=C1C=C(c2cccc(Cl)c2)[C@]2(C(=O)Nc3cc(Cl)ccc32)[C@@H](c2cc(Cl)ccc2OC2CCOCC2)N1` (racemic) [Example 12, racemic(2′R,3R)-6-chloro-4′-(3-chloro-phenyl)-2′-[5-chloro-2-(tetrahydro-pyran-4-yloxy)-phenyl]-1′,3′-dihydrospiro[3H-indole-3,3′-pyridine]-2,6′(1H)-dione] had a 50% inhibitory concentration (IC50) of 0.273 µM.
The result for `Cc1ccc(F)cc1[C@H]1NC(=O)C=C(c2cccc(Cl)c2)[C@]12C(=O)Nc1cc(Cl)ccc12` [Example 6, chiral(2′R,3R)-6-chloro-4′-(3-chloro-phenyl)-2′-(5-fluoro-2-methyl-phenyl)-1′,3′-dihydrospiro[3H-indole-3,3′(2′H)-pyridine]-2,6′(1H)-dione] reads 0.066 µM; that for `Cc1ccc(F)cc1[C@H]1NC(=O)C=C(c2ccoc2)[C@]12C(=O)Nc1cc(Cl)ccc12` (racemic) [Example 32, racemic(2′R,3R)-6-chloro-2′-(5-fluoro-2-methyl-phenyl)-4′-(furan-3-yl)-1′,3′-dihydrospiro[3H-indole-3,3′(2′H)-pyridine]-2,6′(1H)-dione], 5.3 µM.
